Source: patent publication US4994554A, “Probursin” (Immunobiology Research Institute, Inc., priority 1988, dated 1991)
Where no end group is shown, it is not given here.

Legend:
[1] = system: SV40 transformed hamster beta cells (HIT); experiment: Growth hormone inhibition: GRF-stimulated 3H inositol phosphate (IP) release and growth hormone (GH) accumulation, RIA of supernatant; type: cell-based; conditions: for [GH] / [IP]: 15 min
Protocol: An assay was performed to study the effect of probursin in combination with growth hormone releasing factor (GRF) as this combination effects the release of ^3 H inositol phosphate (IP) and growth hormone (GH) accummulation in SV40 transformed hamster beta cells (HIT). The experiment was performed according to the procedures described in M. J. Berridge et al, cited above.
Briefly described, commercially available HIT cells were incubated at 37° C. for 1 hour in metabolic RPMI medium with 5% fetal calf serum (FCS). GRF in varying concentrations indicated in the Table below was added to the cell culture and incubated for 15 minutes at 37° C. The cells were then centrifuged at 800 rpm and the supernatant collected. Levels of GH and IP were measured in the supernatant by radioimmunoassay (RIA) also according to Berridge et al. These measurements formed the GRF control.
The same procedure was followed without the addition of GRF and is indicated below as the control.
Similarly, to indicate the effect of probursin on GRF, the procedure above was followed except that GRF and probursin at the appropriate concentrations indicated in the Table below were added to the cells together and followed by 15 minutes incubation and centrifugation. When the supernatant was measured by RIA as described above, the resulting concentrations of IP and GH were determined as illustrated in the Table below.

Daudi cells = experiment: Cyclic GMP assay in Daudi cells; type: cell-based; conditions: 0 to 1000 micrograms/ml, FIG. 5A
Protocol: Daudi cells were freshly seeded and grown for 2 days with harvesting as described in T. Audhya et al, Arch. Biochem Biophys., 234:167-177 (1984). The cells were washed 3 times in PBS and resuspended in RPMI 1640 at a concentration of 1.0×10^7 cells/ml and were allowed to equilibrate at 37° C. for 30 minutes before the addition of the test compounds (25 ul) of bursin and probursin, and control peptides porcine insulin (A), equine myoglobin (B) and bovine growth hormone (C). The incubation was allowed to proceed in a shaking water bath for 4-5 minutes and was then terminated by addition of 1 ml ice-cold TCA (10%).
The cells in TCA were homogenized and sonicated to release cyclic nucleotide. The suspension was centrifuged at 3000×g for 20 minutes at 4° C. The resulting precipitate was dissolved in 0.1 N NaOH to determine the protein content. TCA was removed from the supernatant fraction by extracting 4 times with 5 ml of water-saturated diethyl ether. […]
Dose-response curves from 0 to 1000 micrograms/ml were evaluated for bursin, probursin and controls. […] A threshold activity was determined for each peptide tested. […] Test results were considered positive if the level of cyclic GMP was greater than 1.52 times (2 standard deviations) that determined for the parallel negative control.

MOPC-315 cells = experiment: Cyclic GMP assay in MOPC-315 cells; type: cell-based; conditions: 0 to 1000 micrograms/ml, FIG. 5B
Anti-bursin antiserum = experiment: ELISA blocking of anti-bursin antiserum binding by absorbants; set-up: species or system rabbit; conditions: FIG. 3B
Protocol: Antisera were tested for activity in the following ELISA protocol. The assays were performed according to the method of Voller et al, Bull. WHO, 53:55 (1976). Briefly, polyvinyl chloride microtiter plates (Fisher Scientific, Springfield, N.J.) were coated overnight with 100 ul/well of 10 ug/ml solution of tetramer of probursin in 0.1 M phosphate buffer, pH 7.2. Plates were washed and were postcoated with 150 ul/well of 0.5 percent bovine serum albumin in PBS, pH 7.2, for one hour at room temperature. Plates were washed, dried at 37° C. for 6-24 hours and sealed in dessicated packages and stored at 4° C.
Antisera to be tested were diluted in PBS containing 0.05 percent Tween 20. One hundred ul of the diluted sera were added per well in triplicates. Normal rabbit or mouse serum was used as the negative control. After 60 minutes of incubation at room temperature the plates were washed three times with PBS Tween-20. One hundred ul of alkaline phosphatase conjugated to affinity-purified goat anti-rabbit IgG (heavy and light chains) diluted 1:2000 in PBS Tween-20 were added to each well. The plates were incubated at room temperature for 60 minutes. […] After 30 minutes of incubation at room temperature the reaction was terminated with the addition of 50 ul/well of 5 N NaOH and the optical density was read at 410 nm. […]

[2] = GRF (0.1 nM) + Probursin (.1 μM)
[3] = GRF (1 nM) + Probursin (0.1 μM)
[4] = GRF (1 nM) + Probursin (1.0 μM)
[5] = GRF (10 nM) + Probursin (10.0 μM)
[6] = GRF 0.1 nM alone, HIT cell supernatant
[7] = GRF 1 nM alone, HIT cell supernatant
[8] = GRF 10 nM alone, HIT cell supernatant

blocking of anti-bursin antiserum binding (Anti-bursin antiserum) | Substance | [GH] [1, 2] [n/ml] | [IP] [1, 2] [cpm] | [GH] [1, 3] [n/ml] | [IP] [1, 3] [cpm] | [GH] [1, 4] [n/ml] | [IP] [1, 4] [cpm] | [GH] [1, 5] [n/ml] | [IP] [1, 5] [cpm] | effect on growth hormone releasing factor action (IP and GH) ([1]; HIT cells, summary in words) | release of growth hormone ([1]; summary in words, refers to Example 6) | induction of intracellular cyclic GMP (dose-response) (Daudi cells) | induction of intracellular cyclic GMP (dose-response) (MOPC-315 cells) | [GH] [1, 6] [n/ml] | [IP] [1, 6] [cpm] | [GH] [1, 7] [n/ml] | [IP] [1, 7] [cpm] | [GH] [1, 8] [n/ml] | [IP] [1, 8] [cpm]
blocked | FFWKTKPRKHGGRR [Probursin, Phe-Phe-Trp-Lys-Thr-Lys-Pro-Arg-Lys-His-Gly-Gly-Arg-Arg] | 35 ± 4 | 239 ± 13 | 480 ± 31 | 1911 ± 310 | 77 ± 6 | 444 ± 22 | 29 ± 3 | 382 ± 16 | marked suppression | inhibit | active | active | – | – | – | – | – | –
– | GRF: growth hormone releasing factor, stimulus in HIT cell assay (YADAIFTNSYRKVLGQLSARKLLQDIMSRQQGESNQERGARARL; ends and bridges not checked; UniProt P01286 32-75, looked up) [reference compound] | – | – | – | – | – | – | – | – | – | – | – | – | 162 ± 4 | 489 ± 19 | 648 ± 26 | 2810 ± 290 | 1162 ± 84 | 8962 ± 821
